Results on 2 compounds are retold here after US7956089B2, “Cyclopropanecarboxylate and pest controlling composition containing the same” (Sumitomo Chemical Company, Limited, priority 2007, dated 2011).

Assay [1] deals with Culex pipiens pallens. In words: Test Example 1: topical application of acetone solution to the nota of female imagoes, death rate. The format is in vivo. The settings on record: 0.015 μg of the test compound per mosquito, 0.005% (w/v) acetone solution, after 24 hours. The protocol:
A 0.005% (w/v) solution of a test compound in acetone was prepared. The nota of 10 female imagoes of Culex pipiens pallens were treated with the acetone solution in an amount of 0.015 μg of the test compound per mosquito. Then, water and feed were given to the test mosquitoes. After 24 hours, the number of dead mosquitoes was counted, and a death rate was calculated (2 repetitions).

In assay [2] the test system is Culex pipiens pallens. The experiment in a line: Test Example 2: vapor exposure over treated aluminum dish in an inverted cup, knockdown rate. The settings on record: 0.002% (w/v) acetone solution, drug amount about 2 mg per 1 m^2, female imagos, after 60 minutes. The format is in vivo. The method, then: A 0.002% (w/v) solution of a test compound in acetone was prepared. Then, 0.64 ml of the acetone solution was dropped onto the bottom of an aluminum dish having a diameter of 9 cm. Then, acetone was air-dried (drug amount: about 2 mg per 1 m^2). Ten female imagos of Culex pipiens pallens were released in a polyethylene cup (diameter: 9 cm; height: 4.5 cm), and the upper opening portion of the polyethylene cup was covered with a 16 mesh nylon net. Next, the cup was inverted onto the aluminum dish. After 60 minutes, the number of knocked down mosquitoes was counted and a knockdown rate was calculated (2 repetitions). As a result, the knockdown rate of the present compound (1) was 70%.

The structures appear in SMILES notation.

As for `COCc1c(F)c(F)c(COC(=O)[C@@H]2[C@@H](C)C2(C)C)c(F)c1F` [Comparative compound (B), 4-methoxymethyl-2,3,5,6-tetrafluorobenzyl (1R)-trans-2,3,3-trimethylcyclopropanecarboxylate, reference compound], in assay [1], the “Death rate (%)” value is 55%. `C#CCc1c(F)c(F)c(COC(=O)[C@@H]2[C@@H](C)C2(C)C)c(F)c1F` [Present compound (1), 4-(2-propynyl)-2,3,5,6-tetrafluorobenzyl (1R)-trans-2,2,3-trimethylcyclopropanecarboxylate]: the “Death rate (%)” value in assay [1] came out at 95%. Further, the knockdown rate in assay [2] is 70%.
